Columns and labels:
[1] = biological target: PIK3CA (human) (UniProt P42336); assay: Assessment of PIK3CA Kinase Activity
[2] = biological target: PIK3CD (Human) (UniProt O00329); assay: Assessment of PIK3CD Kinase Activity
[3] = biological target: PIK3CB (Human) (UniProt P42338); assay: Assessment of PIK3CB Kinase Activity
PIK3CB (Human), sequence (P42338 whole entry, looked up): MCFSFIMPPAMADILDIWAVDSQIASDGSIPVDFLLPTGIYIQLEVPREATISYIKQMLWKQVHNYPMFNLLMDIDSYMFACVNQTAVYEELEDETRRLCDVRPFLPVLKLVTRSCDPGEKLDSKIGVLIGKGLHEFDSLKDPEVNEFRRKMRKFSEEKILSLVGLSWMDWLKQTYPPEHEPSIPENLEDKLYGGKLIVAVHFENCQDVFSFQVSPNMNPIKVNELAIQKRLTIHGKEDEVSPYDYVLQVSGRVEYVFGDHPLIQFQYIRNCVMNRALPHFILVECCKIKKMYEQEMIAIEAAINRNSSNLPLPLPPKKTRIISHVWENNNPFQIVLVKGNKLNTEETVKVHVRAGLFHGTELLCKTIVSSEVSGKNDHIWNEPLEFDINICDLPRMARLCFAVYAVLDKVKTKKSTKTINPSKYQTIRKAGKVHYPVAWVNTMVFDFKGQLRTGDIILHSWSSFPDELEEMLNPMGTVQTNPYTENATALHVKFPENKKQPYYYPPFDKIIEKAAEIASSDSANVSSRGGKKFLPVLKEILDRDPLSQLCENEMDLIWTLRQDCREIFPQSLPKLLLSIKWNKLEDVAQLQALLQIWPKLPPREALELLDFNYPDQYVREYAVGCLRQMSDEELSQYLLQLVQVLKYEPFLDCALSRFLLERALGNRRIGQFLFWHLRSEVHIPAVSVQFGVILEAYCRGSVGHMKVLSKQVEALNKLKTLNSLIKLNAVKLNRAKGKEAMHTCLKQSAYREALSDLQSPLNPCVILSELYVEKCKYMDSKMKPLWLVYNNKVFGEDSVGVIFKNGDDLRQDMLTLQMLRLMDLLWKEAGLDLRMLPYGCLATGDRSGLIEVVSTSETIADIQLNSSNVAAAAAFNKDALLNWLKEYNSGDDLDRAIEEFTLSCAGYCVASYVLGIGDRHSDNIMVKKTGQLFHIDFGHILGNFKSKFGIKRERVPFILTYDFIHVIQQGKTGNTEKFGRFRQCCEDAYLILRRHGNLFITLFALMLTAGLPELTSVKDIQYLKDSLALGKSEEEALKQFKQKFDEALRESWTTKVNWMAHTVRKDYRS

PIK3CA (human), sequence (P42336 whole entry, looked up): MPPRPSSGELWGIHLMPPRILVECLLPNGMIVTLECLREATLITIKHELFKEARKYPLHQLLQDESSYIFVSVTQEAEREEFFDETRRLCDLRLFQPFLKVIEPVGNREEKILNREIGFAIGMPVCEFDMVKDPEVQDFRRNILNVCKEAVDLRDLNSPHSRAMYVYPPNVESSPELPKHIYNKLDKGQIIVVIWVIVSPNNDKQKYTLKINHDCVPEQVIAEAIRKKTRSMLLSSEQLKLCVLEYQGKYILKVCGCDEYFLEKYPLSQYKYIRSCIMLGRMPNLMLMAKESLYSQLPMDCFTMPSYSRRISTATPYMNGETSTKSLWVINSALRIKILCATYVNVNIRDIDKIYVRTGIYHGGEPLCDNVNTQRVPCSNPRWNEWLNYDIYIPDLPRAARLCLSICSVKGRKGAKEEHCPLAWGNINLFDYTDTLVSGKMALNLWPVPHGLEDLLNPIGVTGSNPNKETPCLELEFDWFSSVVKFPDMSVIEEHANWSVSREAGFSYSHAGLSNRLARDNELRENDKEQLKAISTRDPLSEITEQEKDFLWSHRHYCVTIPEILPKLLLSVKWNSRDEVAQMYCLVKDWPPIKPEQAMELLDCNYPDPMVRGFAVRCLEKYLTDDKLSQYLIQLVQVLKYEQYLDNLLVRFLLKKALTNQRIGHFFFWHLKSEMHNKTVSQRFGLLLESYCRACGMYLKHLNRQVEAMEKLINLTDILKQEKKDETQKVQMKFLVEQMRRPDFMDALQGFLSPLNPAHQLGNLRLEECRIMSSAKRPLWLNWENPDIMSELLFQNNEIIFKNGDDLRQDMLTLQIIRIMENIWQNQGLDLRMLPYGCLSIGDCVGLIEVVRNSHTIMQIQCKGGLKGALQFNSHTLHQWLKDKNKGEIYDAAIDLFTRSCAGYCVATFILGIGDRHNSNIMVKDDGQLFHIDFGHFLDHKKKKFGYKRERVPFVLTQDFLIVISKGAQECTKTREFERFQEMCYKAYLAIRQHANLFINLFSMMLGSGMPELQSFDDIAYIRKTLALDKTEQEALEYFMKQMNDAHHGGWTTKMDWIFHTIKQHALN
PIK3CD (Human), sequence (O00329 whole entry, looked up): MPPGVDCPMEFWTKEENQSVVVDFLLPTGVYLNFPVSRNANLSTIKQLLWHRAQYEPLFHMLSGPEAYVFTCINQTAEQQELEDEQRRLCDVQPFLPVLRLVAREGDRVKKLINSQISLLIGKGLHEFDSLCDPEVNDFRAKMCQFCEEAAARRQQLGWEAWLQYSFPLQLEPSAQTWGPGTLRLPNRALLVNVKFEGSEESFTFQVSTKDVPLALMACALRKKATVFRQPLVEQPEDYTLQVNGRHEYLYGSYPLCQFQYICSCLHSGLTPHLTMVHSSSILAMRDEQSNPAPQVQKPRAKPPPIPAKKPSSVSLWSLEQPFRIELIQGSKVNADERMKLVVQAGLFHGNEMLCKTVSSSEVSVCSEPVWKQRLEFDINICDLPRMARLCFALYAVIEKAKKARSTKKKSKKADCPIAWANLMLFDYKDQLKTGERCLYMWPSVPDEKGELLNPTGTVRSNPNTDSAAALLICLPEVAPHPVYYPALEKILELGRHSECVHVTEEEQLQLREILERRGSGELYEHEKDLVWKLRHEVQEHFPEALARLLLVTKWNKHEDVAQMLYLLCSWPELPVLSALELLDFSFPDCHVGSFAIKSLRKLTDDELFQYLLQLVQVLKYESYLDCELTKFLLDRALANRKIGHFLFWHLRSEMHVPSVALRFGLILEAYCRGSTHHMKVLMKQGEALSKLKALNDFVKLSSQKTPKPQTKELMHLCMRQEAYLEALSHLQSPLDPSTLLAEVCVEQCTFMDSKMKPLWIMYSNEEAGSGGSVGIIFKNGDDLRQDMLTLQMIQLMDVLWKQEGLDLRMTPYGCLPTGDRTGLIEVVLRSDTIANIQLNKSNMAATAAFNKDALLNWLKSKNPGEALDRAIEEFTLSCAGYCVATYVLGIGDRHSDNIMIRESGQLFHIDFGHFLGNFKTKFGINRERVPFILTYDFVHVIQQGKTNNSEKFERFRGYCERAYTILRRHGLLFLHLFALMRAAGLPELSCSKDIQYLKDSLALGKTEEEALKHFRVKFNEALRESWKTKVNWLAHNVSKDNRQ

| Compound | IC50 [1] | IC50 [2] | IC50 [3] |
| --- | --- | --- | --- |
| COc1cccc2c1nc(C(F)F)n2-c1nc(OC2CCN(S(=O)(=O)CCN3CCOCC3)CC2)nc(N2CCOCC2)n1 | < 0.1 µM | < 0.1 µM | – |
| COc1cccc2c1nc(C(F)F)n2-c1nc(N2CCOCC2)c2cnn(C3CCN(S(=O)(=O)CCN(C)C)CC3)c2n1 | < 0.1 µM | 0.1 to 1 µM | 0.1 to 1 µM |
| COc1cccc2c1nc(C(F)F)n2-c1nc(-c2ccc(S(=O)(=O)N3CCN(C)CC3)cc2)nc(N2CCOCC2)n1 | 0.1 to 1 µM | – | – |
| COc1cccc2c1nc(C(F)F)n2-c1nc(N2CCOCC2)nc(N2CCC[C@H](N(CCCN(C)C)S(C)(=O)=O)C2)n1 | 0.1 to 1 µM | 0.1 to 1 µM | – |
| COc1cccc2c1nc(C(F)F)n2-c1nc(-c2ccc(N(C)S(=O)(=O)CCN(C)C)cc2)nc(N2CCOCC2)n1 | 0.1 to 1 µM | 0.1 to 1 µM | – |
| CN(C)CCCOc1cccc2c1nc(C(F)F)n2-c1nc(OC2CCN(S(C)(=O)=O)CC2)nc(N2CCOCC2)n1 | 0.1 to 1 µM | 0.1 to 1 µM | – |
| COc1cc(N)cc2c1nc(C(F)F)n2-c1nc(N2CCOCC2)nc(N2CCN(S(=O)(=O)CCN(C)C)CC2)n1 | < 0.1 µM | < 0.1 µM | 0.1 to 1 µM |
| CN(C)CCS(=O)(=O)N1CCN(c2nc(N3CCOCC3)nc(-n3c(C(F)F)nc4ccccc43)n2)CC1 | 0.1 to 1 µM | 0.1 to 1 µM | – |
| COc1cccc2c1nc(C(F)F)n2-c1nc(N2CCOCC2)nc(N(CCCN(C)C)C2CCN(S(=O)(=O)CCl)CC2)n1 | 0.1 to 1 µM | < 0.1 µM | – |

Reference: the Kinase Knowledgebase extract (Sharma et al. 2016)
